Laboratory results reported in publication PMC8327158, “PEGylated AdipoRon derivatives improve glucose and lipid metabolism under insulinopenic and high-fat diet conditions” (Journal of Lipid Research, 2021).
Converted amounts (≈) assume the structure as drawn.

What was measured:
[1] = test system: liver transcriptome of HFD-fed mice; experiment: RNA-seq of liver of HFD-fed mice; type: in vivo, mouse
Description: RNA-sequence was performed by Novogene (Sacramento, CA) by utilizing isolated RNA. After the QC procedures, mRNA from eukaryotic organisms is enriched from total RNA using oligo(dT) beads. For prokaryotic samples, rRNA is removed using a specialized kit that leaves the mRNA. The mRNA from either eukaryotic or prokaryotic sources was then fragmented randomly in fragmentation buffer, followed by cDNA synthesis using random hexamers and reverse transcriptase. After first-strand synthesis, a custom second-strand synthesis buffer (Illumina) is added, with dNTPs, RNase H, and Escherichia coli polymerase I to generate the second strand by nick-translation, and AMPure XP beads are used to purify the cDNA. The final cDNA library is ready after a round of purification, terminal repair, A-tailing, ligation of sequencing adapters, size selection, and PCR enrichment. Library concentration was first quantified using a Qubit 2.0 fluorometer (Life Technologies) and then diluted to […] before checking insert size on an Agilent 2100 and quantifying to greater accuracy by quantitative PCR (Q-PCR) (library activity >2 nM). Libraries are fed into Novaseq6000 machines according to activity and expected data volume.
Differential expression of genes between AdipoRon-treated group and AdipoRonPEG5-treated group was analyzed by use of genes having an fpkm of ≥0 in all samples. Genes whose expression was “between 1.1 and 0.9 fold change” or “more than 1.1 fold up- “or “less than 0.9 fold down-“ regulated in liver RNA from control (n = 3) versus AdipoRon (n = 3) versus AdipoRonPEG5 group constituted “nc”, “up,” and “down” signatures. Gene expression was analyzed using Gene Ontology analysis (GO Consortium) and GenePattern software (Broad Institute).

INS-1 cells = experiment: qPCR gene expression in INS-1 cells; type: cell-based, rat; details: for genes related to insulin secretion and β-cell differentiation transcription factors: absence of palmitate
[2] = Water solubility quantified by LC-MS/MS; type: physicochemical; details: for solubility: water
Description: We quantified the solubilities of AdiponRons by LC-MS/MS. Briefly, water (HPLC grade) was added in 50–100 μl increments to a glass vial containing either AdipoRon (0.97 mg) or AdipoRonPEG5 (1.69 mg), vortexed until the compound started to dissolve (AdipoRon, […]; AdipoRonPEG5, […]). The suspension was then stirred overnight away from light. The solution was transferred to Teflon tubes and centrifuged at 15,000 rpm at room temperature for 10 min. We then collected the supernatant (aqueous saturated solution) for dilution and analysis.
For standards, 98 μl water was added to an Eppendorf tube and combined with 200 μl of methanol containing 0.15% formic acid and 75 ng/ml […] Standard (IS, n-benzeylbenzamide in MeOH. IS final conc. = 50 ng/ml). Samples were spiked with 2 μl of IS. The samples were vortexed 15 s, and spun 2 × 13,200 rpm in a standard microcentrifuge. The supernatant was then analyzed by LC-MS/MS on a QTrap 4000 system (AB Sciex) with the following settings: Ion Source/Gas Parameters: CUR = 25, CAD = medium, IS = 5,000, TEM = 500, GS1 = 70, GS2 = 70. Buffer A: Water + 0.1% formic acid + 2 mM NH4OAC; Buffer B: methanol + 0.1% formic acid + 2 mM NH4OAC; flow rate 1.5 ml/min; Agilent C18 XDB column, 5 micron packing 50 × 4.6 mm size. HPLC elution gradient: 0–0.5 min 97% A, 0.5–2.0 min gradient to 100% B, 2.0–3.5 min 100% B, 3.5–3.6 min gradient to 97% A, 3.6–4.1 97% A. Compound transition 429.156 to 174.1 for AdipoRon and 665.289 to 135.2 for AdipoRonPEG5.

[3] = test system: AMPK and ACC phosphorylation; experiment: Western blot of AMPK and ACC phosphorylation in liver and subcutaneous adipose tissue; type: in vivo, mouse
Description: Protein was extracted from the adipose tissue by homogenization in PBS supplemented with 1 mM EDTA, 20 mM NaF, 2 mM Na3VO4, and protease inhibitor cocktail. 5× RIPA buffer was added to the homogenate for a final concentration of 10 mM Tris-HCl, 2 mM EDTA, 0.3% NP40, 0.3% deoxycholate, 0.1% SDS, and 140 mM NaCl, pH 7.4. The sample was centrifuged at 10,000 g for 5 min. In total, 20–50 μg/lane of supernatant protein was separated by SDS-PAGE (NP0335BOX, Thermo Fisher) and transferred to nitrocellulose membrane. The blots were then incubated overnight at 4°C with primary antibodies (1:1,000) in a 1% BSA TBST-blocking solution. Primary antibodies are listed in supplemental Table S3. Primary antibodies were detected using secondary antibodies labeled with infrared dyes emitting at 700 nm or 800 nm (1:5,000, Li-Cor Bioscience 925-68073 and 926-32213, respectively) The Odyssey Infrared Imager was used to visualized western blots with Li-Cor IRdye secondary antibodies.

[4] = Plasma pharmacokinetics after IP dosing; type: in vivo, C57BL/6J mice; details: IP 20 mg/kg; for Cmax: male, mouse, plasma, 8-week-old C57BL/6J mice, mean ± SEM
Description: Two groups of male C57BL/6J mice (21 mice/group) at 8 weeks of age were dosed IP with 20 mg/kg AdipoRon or AdipoRonPEG5, 0.2 ml/mouse formulated as 10% DMSO/10% Cremophor/20% PEG400/60% PBS. Whole blood was harvested at seven time points post IP dosing, 10 min, 30 min, 90 min, 180 min, 360 min, 960 min, and 1,440 min. Three mice were euthanized at each time point. Plasma was processed from whole blood by centrifugation of the ACD-treated blood for 10′ at 10,000 rpm in a standard centrifuge. Additionally, the liver was harvested. The tissues were weighed and snap frozen in liquid nitrogen.
To quantify plasma drug concentration and PK, we prepared standards by adding 98 μl blank plasma (BioIVT) to an eppendorf. These were spiked with 2 μl of initial standard. For QCs, we added 98.8 μl blank plasma to Eppendorf, spiked with 1.2 μl of initial standard. For samples, we mixed 100 μl plasma with 200 μl of methanol containing 0.15% formic acid and 75 ng/ml IS (IS final conc. = 50 ng/ml). The samples were vortexed 15 s, incubated at room temp for 10′, and spun 2× 13,200 rpm in a standard microcentrifuge. The supernatant was then analyzed by LC-MS/MS.

solubility in water ([2]; LC-MS/MS, mean ± SD)	SMILES	AdipoR1 / AdipoR2 signaling pathway genes ([1]; HFD 4 weeks, 5 mg/kg 5 days)	gluconeogenesis-related genes in the liver ([1]; HFD 4 weeks, 5 mg/kg 5 days)	triglyceride- and glucose-metabolism-related genes incl. scd1, pck1 ([1]; HFD 4 weeks, 5 mg/kg 5 days)	upregulation of genes of the family of ceramidases ([1]; HFD 4 weeks, 5 mg/kg 5 days)	glutathione S-transferases Gstm1 and Gstm2 ([1]; top 30 genes)	genes related to insulin secretion and β-cell differentiation transcription factors (INS-1 cells; 20 μM)	expression of Ins1, Nkx6-1 and Kcnj11 (INS-1 cells; 20 μM, presence of palmitate)	expression of Hif-1α (INS-1 cells; PA-stressed INS-1 cells)	times more soluble in water than the parent molecule ([2]; vs AdipoRon)	solubility ([2]; LC-MS/MS, mean ± SD)	ACC phosphorylation in the subcutaneous adipose tissue ([3]; single treatment)	AMPK pathway in the liver ([3]; single treatment)	increase in maximal plasma concentration compared with AdipoRon [4]	Cmax [4]	lipogenesis genes Acly and Scd1 ([1]; top 30 genes)	p-AMPK levels in the liver, AdipoRon versus AdipoRonPEG5 ([3]; HFD-induced obese mice)
	O=C(COc1ccc(C(=O)c2ccccc2)cc1)NC1CCN(Cc2ccc(OCCOCCOCCOCCOCCO)cc2)CC1 [AdipoRonPEG5]	preference toward amplifying AdipoR1 signaling pathway	inhibitory effect	downregulated	highest	prominent increases	suppress	significantly increased	elevates	about 100 times	910 ± 36 µg/mL (≈ 1370 µM)	enhanced	activated	threefold	6510 ± 685 ng/mL		
9 µg/mL (≈ 21 µM)	O=C(COc1ccc(C(=O)c2ccccc2)cc1)NC1CCN(Cc2ccccc2)CC1 [AdipoRon]	sided with AdipoR2 signaling			to a lesser extent		suppress				8.99 ± 0.15 µg/mL (≈ 21 µM)				2170 ± 196 ng/mL	highly upregulated	higher
